Experimental data: patent US10562912B2 (C&C Research Laboratories, priority 2013, dated 2020)

Legend:
Format in all cases: cell-based
LNCaP = experiment: Cell growth inhibition assay, prostate cancer cell line LNCaP (medium with 10 ng/mL IL-6); conditions: Homo sapiens, medium supplemented with 10 ng/mL of IL-6, 10,000 cells/well
STAT3 = target: T1, STAT3 (Homo sapiens, UniProt P40763); experiment: STAT3 reporter gene assay (luciferase), LNCaP stable cell line (pSTAT3-TA-luc), IL-6 stimulation
T1 construct: plasmid pSTAT3-TA-luc), which contains a stably operating STAT3 promoter; endogenous in cells
T1 sequence (P40763 whole entry): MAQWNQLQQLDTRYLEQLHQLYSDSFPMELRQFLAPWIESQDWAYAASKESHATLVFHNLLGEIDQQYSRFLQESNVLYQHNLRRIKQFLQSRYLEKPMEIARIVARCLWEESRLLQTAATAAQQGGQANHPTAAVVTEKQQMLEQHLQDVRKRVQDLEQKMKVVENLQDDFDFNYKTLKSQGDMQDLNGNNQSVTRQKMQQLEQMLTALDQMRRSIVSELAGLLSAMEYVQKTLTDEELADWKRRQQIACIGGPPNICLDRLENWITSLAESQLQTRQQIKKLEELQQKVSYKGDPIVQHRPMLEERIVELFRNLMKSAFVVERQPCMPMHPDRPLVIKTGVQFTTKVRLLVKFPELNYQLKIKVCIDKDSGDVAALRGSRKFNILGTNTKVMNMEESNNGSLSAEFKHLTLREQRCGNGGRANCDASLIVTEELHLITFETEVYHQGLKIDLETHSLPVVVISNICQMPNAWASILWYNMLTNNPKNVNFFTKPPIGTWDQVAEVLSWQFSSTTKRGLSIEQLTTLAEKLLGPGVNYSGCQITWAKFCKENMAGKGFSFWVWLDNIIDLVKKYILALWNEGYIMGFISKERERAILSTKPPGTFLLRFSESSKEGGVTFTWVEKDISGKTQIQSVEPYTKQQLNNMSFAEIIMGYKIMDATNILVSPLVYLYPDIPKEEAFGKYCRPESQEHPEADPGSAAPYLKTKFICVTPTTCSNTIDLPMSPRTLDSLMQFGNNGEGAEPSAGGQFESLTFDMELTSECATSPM
How it was run: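 LNCaP cells stably carrying pSTAT3-TA-luc, in RPMI1640 with 3% DCC-FBS, were treated with compound and then stimulated with 10 ng/mL IL-6 for 24–48 h at 37 °C. Luciferase activity was measured in lysates. A parallel plate measured viability by CellTiter-Glo, with stimulated 0.1% DMSO wells as the positive control.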

AGS = experiment: Cell growth inhibition assay, stomach cancer cell line AGS; conditions: Homo sapiens; AGS stomach cancer cell line, 3,000 cells/well
Procedure: The inhibitory effects of the compounds of the present invention against the growth of cancer cells were evaluated as shown below. The cancer cell lines including stomach cancer cell line (AGS), breast cancer cell lines (MDA-MB-231, MDA-MB-468, and BT-549), prostate cancer cell lines (LNCaP and DU-145), colon cancer cell line (HCT116), ovarian cancer cell line (SW626), liver cancer cell line (Hep3B), kidney cancer cell line (ACHN), lung cancer cell line (NCI-H23) and blood cancer cell lines (HEL92.1.7 and U266) were cultured under the protocol provided by each supplier. A medium supplemented with 10 ng/mL of IL-6 was used for LNCaP, a prostate cancer cell line, when treated with a drug. Each type of cells to be used in experiments were sub-cultured in a 96-well plate by counting the exact number of cells using Tali™ Image-based Cytometer (Life Technologies). In a 96-well plate, AGS, HCT116, and DU-145 were employed with 3,000 cells/well; NCI-H23, SW626, Hep3B, ACHN, BT-549, MDA-MB-231, HEL92.1.7, and U266 were employed with 5,000 cells/well; and LNCaP and MDA-MB-468 were employed with 10,000 cells/well. The cells were treated with the compounds listed in Examples which were diluted in various concentrations. Upon completion of the compounds treatment, AGS, HCT116, SW626, DU145, NCI-H23, Hep3B, ACHN, BT-549, LNCaP, HEL92.1.7, and U266 cells were cultured at 37° C. under 5% CO2 for from 72 to 96 hours, and MDA-MB-231 and MDA-MB-468 cells were cultured at 37° C. in air for from 72 to 96 hours. Subsequently, the cells were observed under microscope and drug precipitation and particular findings were investigated and recorded. And then, the 96-well plate was placed at room temperature for 30 minutes, added with 20 μL/well of CellTiter-Glo solution (Cat No. G7573, Promega) and shaken for 10 minutes, followed by being subjected to the measurement using PHERAstar™ microplate reader (BMG LABTECH) according to the supplier's general luminometer protocol. Wells where only culture liquid added without cell plating were used as a negative control, whereas wells where culture liquid containing 0.1% DMSO instead of the compounds listed in Examples were used as a positive control.

| IC50 (LNCaP) | IC50 (STAT3) | IC50 (AGS) | SMILES |
| --- | --- | --- | --- |
| 8.5 µM | 4.7 µM | 7.6 µM | Cn1c(C(=O)Nc2cccc(-c3ccccc3C(F)(F)F)c2)cc2ccc(NS(C)(=O)=O)cc21 [Example 253, 1-methyl-6-(methylsulfonamido)-N-(2′-(trifluoromethyl)-[1,1′-biphenyl]-3-yl)-1H-indole-2-carboxamide] |
| > 10 µM | > 10 µM | > 50 µM | O=C(Nc1cccc(-c2ccc(F)cc2F)c1)c1cc2ccc([N+](=O)[O-])cc2[nH]1 [Example 225, N-(2′,4′-difluoro-[1,1′-biphenyl]-3-yl)-6-nitro-1H-indole-2-carboxamide] |
| > 10 µM | 3.3 µM | 20 µM | COc1ccc(S(=O)(=O)c2cccc(NC(=O)c3cc4ccc(NS(C)(=O)=O)cc4[nH]3)c2)cc1 [Example 394, N-(3-((4-methoxyphenyl)sulfonyl)phenyl)-6-(methylsulfonamido)-1H-indole-2-carboxamide] |
| > 10 µM | 2.9 µM | 19.3 µM | O=C(Nc1cccc(-c2ccc(F)cc2F)c1)C1Cc2ccc([N+](=O)[O-])cc2N1 (stereo not drawn) [Example 231, N-(2′,4′-difluoro-[1,1′-biphenyl]-3-yl)-6-nitroindoline-2-carboxamide] |
| > 10 µM | 5.7 µM | 45.5 µM | COc1cncc(S(=O)(=O)c2cccc(NC(=O)c3cc4ccc(NS(C)(=O)=O)cc4[nH]3)c2)c1 [Example 407, N-(3-((5-methoxypyridin-3-yl)sulfonyl)phenyl)-6-(methylsulfonamido)-1H-indole-2-carboxamide] |
| > 10 µM | 3.4 µM | 22 µM | CS(=O)(=O)Nc1ccc2cc(C(=O)Nc3cccc(S(=O)(=O)c4cccc(CC#N)c4)c3)[nH]c2c1 [Example 412, N-(3-((3-(cyanomethyl)phenyl)sulfonyl)phenyl)-6-(methylsulfonamido)-1H-indole-2-carboxamide] |
| > 10 µM | 4.3 µM | 26.3 µM | CS(=O)(=O)Nc1ccc2cc(C(=O)Nc3cccc(-c4ccc(N)cc4C(F)(F)F)c3)[nH]c2c1 [Example 385, N-(4′-amino-2′-(trifluoromethyl)-[1,1′-biphenyl]-3-yl)-6-(methylsulfonamido)-1H-indole-2-carboxamide] |
| 3.5 µM | 2.6 µM | 16.1 µM | CS(=O)(=O)Nc1ccc2cc(C(=O)Nc3cccc(-c4cnc(Cl)cc4C(F)(F)F)c3)[nH]c2c1 [Example 294, N-(3-(6-chloro-4-(trifluoromethyl)pyridin-3-yl)phenyl)-6-(methylsulfonamido)-1H-indole-2-carboxamide] |
| > 10 µM | > 10 µM | 42.6 µM | CS(=O)(=O)Nc1ccc2cc(C(=O)Nc3cccc(-c4cc(C(N)=O)ccc4Cl)c3)[nH]c2c1 [Example 380, N-(5′-carbamoyl-2′-chloro-[1,1′-biphenyl]-3-yl)-6-(methylsulfonamido)-1H-indole-2-carboxamide] |
| 3.1 µM | 1.9 µM | 11.3 µM | CS(=O)(=O)Nc1ccc2cc(C(=O)Nc3cccc(-c4ccc(C#N)cc4C(F)(F)F)c3)[nH]c2c1 [Example 284, N-(4′-cyano-2′-(trifluoromethyl)-[1,1′-biphenyl]-3-yl)-6-(methylsulfonamido)-1H-indole-2-carboxamide] |
| 8 µM | 3.4 µM | 7.6 µM | CNc1ccc(-c2cccc(NC(=O)c3cc4ccc(NS(C)(=O)=O)cc4[nH]3)c2)c(C(F)(F)F)c1 [Example 386, N-(4′-(methylamino)-2′-(trifluoromethyl)-[1,1′-biphenyl]-3-yl)-6-(methylsulfonamido)-1H-indole-2-carboxamide] |
| 8.6 µM | > 10 µM | 21.6 µM | COc1ccc(F)c(-c2ccnc(NC(=O)c3cc4ccc([N+](=O)[O-])cc4[nH]3)c2)c1 [Example 297, N-(4-(2-fluoro-5-methoxyphenyl)pyridin-2-yl)-6-nitro-1H-indole-2-carboxamide] |
| > 10 µM | 8.2 µM | 34.4 µM | CS(=O)(=O)Nc1ccc2cc(C(=O)Nc3cccc(S(=O)(=O)c4ccccn4)c3)[nH]c2c1 [Example 403, 6-(methylsulfonamido)-N-(3-(pyridin-2-ylsulfonyl)phenyl)-1H-indole-2-carboxamide] |
| 9.1 µM | 5.8 µM | 20.3 µM | CS(=O)(=O)Nc1ccc2cc(C(=O)Nc3cccc(C(F)(F)c4ccccn4)c3)[nH]c2c1 [Example 389, N-(3-(difluoro(pyridin-2-yl)methyl)phenyl)-6-(methylsulfonamido)-1H-indole-2-carboxamide] |
| > 10 µM | 3.1 µM | 31.3 µM | Cc1nc2ccc(S(=O)(=O)c3cccc(NC(=O)c4cc5ccc(NS(C)(=O)=O)cc5[nH]4)c3)cc2s1 [Example 410, N-(3-((2-methylbenzo[d]thiazol-6-yl)sulfonyl)phenyl)-6-(methylsulfonamido)-1H-indole-2-carboxamide] |
| > 10 µM | > 10 µM | > 50 µM | COC(=O)c1cc(-c2cccc(NC(=O)c3cc4ccc([N+](=O)[O-])cc4[nH]3)c2)c(C(F)(F)F)cc1OC [Example 288, methyl 4-methoxy-3′-(6-nitro-1H-indole-2-carboxamido)-6-(trifluoromethyl)-[1,1′-biphenyl]-3-carboxylate] |
| 6.2 µM | 1.9 µM | 13 µM | O=C(Nc1cccc(-c2ccccc2C(F)(F)F)c1)c1cc2ccc(NS(=O)(=O)CC(F)(F)F)cc2[nH]1 [Example 264, 6-(2,2,2-trifluoroethylsulfonamido)-N-(2′-(trifluoromethyl)-[1,1′-biphenyl]-3-yl)-1H-indole-2-carboxamide] |
| 9.6 µM | 6.1 µM | 15.7 µM | Cn1c(C(=O)Nc2cccc(-c3ccc(F)cc3F)c2)cc2ccc(NS(C)(=O)=O)cc21 [Example 248, N-(2′,4′-difluoro-[1,1′-biphenyl]-3-yl)-1-methyl-6-(methylsulfonamido)-1H-indole-2-carboxamide] |
| 3.5 µM | 1.6 µM | 6.9 µM | CN(c1ccc2cc(C(=O)Nc3cccc(-c4ccc(F)cc4F)c3)n(C)c2c1)S(C)(=O)=O [Example 345, N-(2′,4′-difluoro-[1,1′-biphenyl]-3-yl)-1-methyl-6-(N-methylmethylsulfonamido)-1H-indole-2-carboxamide] |
| > 10 µM | > 10 µM | 30.1 µM | CS(=O)(=O)Nc1ccc2cc(C(=O)Nc3cccc(-c4cc(C(N)=O)ccc4C(F)(F)F)c3)[nH]c2c1 [Example 379, N-(5′-carbamoyl-2′-(trifluoromethyl)-[1,1′-biphenyl]-3-yl)-6-(methylsulfonamido)-1H-indole-2-carboxamide] |
| 9.6 µM | 1.7 µM | 14.4 µM | CS(=O)(=O)Nc1ccc2cc(C(=O)Nc3cccc(S(=O)(=O)c4cccc(Br)c4)c3)[nH]c2c1 [Example 414, N-(3-((3-bromophenyl)sulfonyl)phenyl)-6-(methylsulfonamido)-1H-indole-2-carboxamide] |
| > 10 µM | > 10 µM | 32 µM | COC(=O)c1cc(-c2cccc(NC(=O)c3cc4ccc(NS(C)(=O)=O)cc4[nH]3)c2)c(C(F)(F)F)cc1OC [Example 289, methyl 4-methoxy-3′-(6-(methylsulfonamido)-1H-indole-2-carboxamido)-6-(trifluoromethyl)-[1,1′-biphenyl]-3-carboxylate] |
| > 10 µM | 4.2 µM | 11.4 µM | NS(=O)(=O)Nc1ccc2cc(C(=O)Nc3cccc(-c4ccccc4C(F)(F)F)c3)[nH]c2c1 [Example 265, 6-(sulfamoylamino)-N-(2′-(trifluoromethyl)-[1,1′-biphenyl]-3-yl)-1H-indole-2-carboxamide] |
| > 10 µM | 6.3 µM | 22.1 µM | CS(=O)(=O)Nc1ccc2cc(C(=O)Nc3cccc(S(=O)(=O)c4cccc(C#N)c4)c3)[nH]c2c1 [Example 402, N-(3-((3-cyanophenyl)sulfonyl)phenyl)-6-(methylsulfonamido)-1H-indole-2-carboxamide] |
